Measurements published in patent US20220142941A1, “COMBINATION THERAPEUTIC REGIMENS WITH 1,6-DIBROMO-1,6-DIDEOXY-DULCITOL” (Eleison Pharmaceuticals LLC, priority 2019, published 2022).
Entries after “also recorded” stand apart in the source; their conditions may differ.

Key:
Assay type in all cases: cell-based, human
[1] = system: panel of 20 patient derived cell cultures; experiment: DBD combination treatment, overall result over the panel; details: Tables 2 and 3, day 5 and day 8, all cultures
Experimental: (§1) Crystalline DBD polymorph treatment was combined with chemotherapy, radiotherapy and targeted inhibitors to determine whether the crystalline DBD polymorph form could: enhance efficacy of the conventional therapies; enhance efficacy when combined with newer ‘targeted’ therapies; or would make (a subset of) cultures more sensitive to this treatment.
(§2) Therefore, cultures were treated with: • a.

GS184NS = experiment: DBD combination treatment, viability enhancement factor; details: GS184NS (p18 + p19), labelled therapy combined with crystalline DBD polymorph;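 further: DBD at its own IC50 and half IC50 determined at Day 5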
Experimental: as §1, §2

GS359NS = experiment: as above; details: GS359NS (p15 + p14), labelled therapy combined with crystalline DBD polymorph
Experimental: as §1, §2

GS324coreNS = experiment: as above; details: GS324coreNS (p19), labelled therapy combined with crystalline DBD polymorph
Experimental: as §1, §2

GS304NS = experiment: as above; details: GS304NS (p16), labelled therapy combined with crystalline DBD polymorph
Experimental: as §1, §2

GS365NS = experiment: as above; details: GS365NS (p17 + p16), labelled therapy combined with crystalline DBD polymorph
Experimental: as §1, §2

GS279periNS = experiment: as above; details: GS279periNS (p16 + p15), labelled therapy combined with crystalline DBD polymorph;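 further: DBD at its own IC50 and half IC50 determined at Day 5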
Experimental: as §1, §2

GS186coreNS = experiment: as above; details: GS186coreNS (p18), labelled therapy combined with crystalline DBD polymorph
Experimental: as §1, §2

GS102periNS = experiment: as above; details: GS102periNS (p20 + p21), labelled therapy combined with crystalline DBD polymorph
Experimental: as §1, §2

GS104periNS = experiment: as above; details: GS104periNS (p21 + p22), labelled therapy combined with crystalline DBD polymorph
Experimental: as §1, §2

GS323periNS = experiment: as above; details: Day 5; GS323periNS (p20 + p19); labelled therapy combined with crystalline DBD polymorph
Experimental: as §1, §2

GS281NS = experiment: as above; details: GS281NS (p15), labelled therapy combined with crystalline DBD polymorph
Experimental: as §1, §2

GS261NS = experiment: as above; details: GS261NS (p13), labelled therapy combined with crystalline DBD polymorph
Experimental: as §1, §2

GS203NS = experiment: as above; details: GS203NS (P19 + p18), labelled therapy combined with crystalline DBD polymorph
Experimental: as §1, §2

GS249NS = experiment: as above; details: GS249NS (p17), labelled therapy combined with crystalline DBD polymorph
Experimental: as §1, §2

GS289NS = experiment: as above; details: GS289NS (p15 + p16), labelled therapy combined with crystalline DBD polymorph;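 further: DBD at its own IC50 and half IC50 determined at Day 5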
Experimental: as §1, §2

GS257NS = experiment: as above; details: GS257NS (p16 + p17), labelled therapy combined with crystalline DBD polymorph;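 further: DBD at its own IC50 and half IC50 determined at Day 5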
Experimental: as §1, §2

GS224NS = experiment: as above; details: GS224NS (p17), labelled therapy combined with crystalline DBD polymorph
Experimental: as §1, §2

GS279coreNS = experiment: as above; details: Day 5; GS279coreNS (p12 + p13); labelled therapy combined with crystalline DBD polymorph
Experimental: as §1, §2

GS245NS = experiment: as above; details: GS245NS (p16 + p15), labelled therapy combined with crystalline DBD polymorph
Experimental: as §1, §2

GS186periNS = experiment: as above; details: GS186periNS (p15), labelled therapy combined with crystalline DBD polymorph
Experimental: as §1, §2

| SMILES | enhancement factor (viability % of most effective monotherapy divided by viability % of combination) (GS184NS; Day 5) | enhancement factor (viability % of most effective monotherapy divided by viability % of combination) (GS184NS; Day 8) | enhancement factor (viability % of most effective monotherapy divided by viability % of combination) (GS359NS; Day 5) | enhancement factor (viability % of most effective monotherapy divided by viability % of combination) (GS359NS; Day 8) | enhancement factor (viability % of most effective monotherapy divided by viability % of combination) (GS324coreNS; Day 5) | enhancement factor (viability % of most effective monotherapy divided by viability % of combination) (GS324coreNS; Day 8) | enhancement factor (viability % of most effective monotherapy divided by viability % of combination) (GS304NS; Day 5) | enhancement factor (viability % of most effective monotherapy divided by viability % of combination) (GS304NS; Day 8) | enhancement factor (viability % of most effective monotherapy divided by viability % of combination) (GS365NS; Day 5) | enhancement factor (viability % of most effective monotherapy divided by viability % of combination) (GS365NS; Day 8) | enhancement factor (viability % of most effective monotherapy divided by viability % of combination) (GS279periNS; Day 5) | enhancement factor (viability % of most effective monotherapy divided by viability % of combination) (GS279periNS; Day 8) | enhancement factor (viability % of most effective monotherapy divided by viability % of combination) (GS186coreNS; Day 5) | enhancement factor (viability % of most effective monotherapy divided by viability % of combination) (GS186coreNS; Day 8) | enhancement factor (viability % of most effective monotherapy divided by viability % of combination) (GS102periNS; Day 5) | enhancement factor (viability % of most effective monotherapy divided by viability % of combination) (GS102periNS; Day 8) | enhancement factor (viability % of most effective monotherapy divided by viability % of combination) (GS104periNS; Day 5) | enhancement factor (viability % of most effective monotherapy divided by viability % of combination) (GS104periNS; Day 8) | enhancement factor (viability % of most effective monotherapy divided by viability % of combination) (GS323periNS) | enhancement factor (viability % of most effective monotherapy divided by viability % of combination) (GS281NS; Day 5) | also measured |
| --- | --- | --- | --- | --- | --- | --- | --- | --- | --- | --- | --- | --- | --- | --- | --- | --- | --- | --- | --- | --- | --- |
| Cc1ccc(NC(=O)c2ccc(CN3CCN(C)CC3)cc2)cc1Nc1nccc(-c2cccnc2)n1 [Imatinib] | – | – | – | – | – | – | – | – | – | – | – | – | – | – | – | – | – | – | – | – | enhancement factors overall, in combination with DBD [1]: highest enhancement factors; also recorded: high enhancement factor, most cases |
| Cc1[nH]c2ccccc2c1CCNCc1ccc(/C=C/C(=O)NO)cc1 [Panobinostat] | 1.712 | 2.357 | 4.343 | 5.512 | 3.192 | 9.253 | 4.406 | 5.405 | 2.914 | 3.253 | 1.943 | 5.488 | 2.557 | 5.363 | 1.591 | 3.863 | 1.339 | 1.796 | 1.656 | 1.480 | enhancement factor (viability % of most effective monotherapy divided by viability % of combination) (GS281NS; Day 8): 4.353; enhancement factor (viability % of most effective monotherapy divided by viability % of combination) (GS261NS; Day 5): 1.392; enhancement factor (viability % of most effective monotherapy divided by viability % of combination) (GS261NS; Day 8): 2.253; enhancement factor (viability % of most effective monotherapy divided by viability % of combination) (GS203NS; Day 8): 1.651; enhancement factor (viability % of most effective monotherapy divided by viability % of combination) (GS249NS; Day 5): 1.074; enhancement factor (viability % of most effective monotherapy divided by viability % of combination) (GS249NS; Day 8): 0.944; enhancement factor (viability % of most effective monotherapy divided by viability % of combination) (GS289NS; Day 5): 2.519; enhancement factor (viability % of most effective monotherapy divided by viability % of combination) (GS289NS; Day 8): 3.535; enhancement factor (viability % of most effective monotherapy divided by viability % of combination) (GS257NS; Day 5): 1.643; enhancement factor (viability % of most effective monotherapy divided by viability % of combination) (GS257NS; Day 8): 1.590; enhancement factor (viability % of most effective monotherapy divided by viability % of combination) (GS224NS; Day 5): 4.399; enhancement factor (viability % of most effective monotherapy divided by viability % of combination) (GS224NS; Day 8): 7.387; enhancement factor (viability % of most effective monotherapy divided by viability % of combination) (GS279coreNS): 5.962; enhancement factor (viability % of most effective monotherapy divided by viability % of combination) (GS245NS; Day 5): 1.129; enhancement factor (viability % of most effective monotherapy divided by viability % of combination) (GS245NS; Day 8): 1.202; enhancement factor (viability % of most effective monotherapy divided by viability % of combination) (GS186periNS; Day 5): 2.105; enhancement factor (viability % of most effective monotherapy divided by viability % of combination) (GS186periNS; Day 8): 8.116 |
| Cn1nnc2c(C(N)=O)ncn2c1=O [TMZ, Temozolomide] | 1.362 | 1.531 | 1.830 | 1.700 | 1.700 | 1.377 | 1.147 | 1.134 | 1.156 | 1.019 | 1.162 | 1.129 | 1.751 | 2.029 | 1.268 | 1.309 | 1.101 | 0.987 | 1.553 | 1.264 | enhancement factor (viability % of most effective monotherapy divided by viability % of combination) (GS281NS; Day 8): 1.161; enhancement factor (viability % of most effective monotherapy divided by viability % of combination) (GS261NS; Day 5): 1.271; enhancement factor (viability % of most effective monotherapy divided by viability % of combination) (GS261NS; Day 8): 1.462; enhancement factor (viability % of most effective monotherapy divided by viability % of combination) (GS203NS; Day 5): 1.055; enhancement factor (viability % of most effective monotherapy divided by viability % of combination) (GS203NS; Day 8): 1.159; enhancement factor (viability % of most effective monotherapy divided by viability % of combination) (GS249NS; Day 5): 1.602; enhancement factor (viability % of most effective monotherapy divided by viability % of combination) (GS289NS; Day 5): 1.376; enhancement factor (viability % of most effective monotherapy divided by viability % of combination) (GS289NS; Day 8): 1.032; enhancement factor (viability % of most effective monotherapy divided by viability % of combination) (GS257NS; Day 5): 1.005; enhancement factor (viability % of most effective monotherapy divided by viability % of combination) (GS257NS; Day 8): 0.858; enhancement factor (viability % of most effective monotherapy divided by viability % of combination) (GS224NS; Day 5): 1.335; enhancement factor (viability % of most effective monotherapy divided by viability % of combination) (GS224NS; Day 8): 1.470; enhancement factor (viability % of most effective monotherapy divided by viability % of combination) (GS279coreNS): 1.440; enhancement factor (viability % of most effective monotherapy divided by viability % of combination) (GS245NS; Day 5): 1.099; enhancement factor (viability % of most effective monotherapy divided by viability % of combination) (GS245NS; Day 8): 1.088; enhancement factor (viability % of most effective monotherapy divided by viability % of combination) (GS186periNS; Day 5): 2.167; enhancement factor (viability % of most effective monotherapy divided by viability % of combination) (GS186periNS; Day 8): 1.220 |
